Values joined by “and” are separate entries in the source; they are usually repeats but may differ in a detail not shown here. Identical values can stand only once.
Experiments:
[1] = test system: human glioblastoma multiforme cell lines; assay: Cell appearance after exposure in culture; type: cell-based; details: 100 μmol/L, up to 72 hours
Description: (§1) Cell Culture and Exposure to Motexafin Gadolinium: Four well-established human glioblastoma multiforme cell lines were used for the in vitro studies: T98G (22), U87 (23), MO59K (24), and TB10 (9, 25). Cells were grown on precut 10 mm×10 mm silicon wafers (Silson, Northhampton, United Kingdom) for X-PEEM spectromicroscopy; on 1 mm×1 mm Si3N4 windows, 100 nm thick (Silson) for STXM spectromicroscopy; on tissue culture-treated polystyrene slides for confocal microscopy; and in Petri dishes for ICP-MS analysis. Subconfluent cultures were exposed to motexafin gadolinium (Pharmacyclics, Sunnyvale, Calif.), formulated at 2.3 mg/mL in 5% aqueous mannitol, and added to the culture medium to a final concentration of 100 μmol/L. Six different exposure times ranging from 0 to 72 hours were used for the ICP-MS time course measurements. For all microscopy experiments exposure times were kept constant at 72 hours. The cell appearance was not altered by motexafin gadolinium exposure.

TB10 cells [2] = assay: X-PEEM (SPHINX) spectromicroscopy of intranuclear Gd; type: cell-based, human
Description: as §1
(§2) After exposure to motexafin gadolinium, the cell cultures on Si substrates for X-PEEM analysis were washed three times with PBS solution to remove free Gd, fixed in 4% paraformaldehyde in PBS for 20 minutes, double-washed in Milli-Q-water, and air dried. At this point, some cell cultures were sputtered with 3-kV argon ions at 10^−5 Torr for 10 minutes; others were not. Sputtering removes the topmost portion of the cell to reveal the inner nuclear compartment of fixed cells (26). Sputtered and unsputtered cells were then ashed in UV/O3 for 140 hours (27). […]
X-PEEM Spectromicroscopy Analysis: X-PEEM spectromicroscopy analysis was done using the Spectromicroscope for Photoelectron Imaging of Nanostructures with X-rays (SPHINX) instrument (Elmitec GmbH, Clausthal, Germany), installed on the HERMON beamline at the Synchrotron Radiation Center (Madison, Wis.). […] Cell and tissue ashing increases gadolinium concentration by a factor of 10; therefore, the detection limit was on the order of ≦100 ppm in all cells analyzed. […]

[3] = test system: TB10, MO59K and T98G cells; assay: Confocal fluorescence microscopy of motexafin gadolinium-related fluorescence; type: cell-based, human; details: n=481, 100 μmol/L, 72 hours
Description: Cell Culture and Exposure to Motexafin Gadolinium: Four well-established human glioblastoma multiforme cell lines were used for the in vitro studies: T98G (22), U87 (23), MO59K (24), and TB10 (9, 25). Cells were grown on precut 10 mm×10 mm silicon wafers (Silson, Northhampton, United Kingdom) for X-PEEM spectromicroscopy; on 1 mm×1 mm Si3N4 windows, 100 nm thick (Silson) for STXM spectromicroscopy; on tissue culture-treated polystyrene slides for confocal microscopy; and in Petri dishes for ICP-MS analysis. […]
Confocal Microscopy: Three of the four cell lines (TB10, MO59K, and T98G) were analyzed using a Bio-Rad (Richmond, Calif.) MRC 1024ES confocal microscope. This instrument can simultaneously measure the fluorescence from three channels, with excitation wavelengths from the three lines of a krypton/argon laser and emission through three independent barrier filters. […]
The aperture was set for minimal optical section thickness, and laser power and photodetector gain were set to image cell fluorescence within the 8-bit grayscale range of the photodetector. Five consecutive optical sections were obtained vertically through the cells to verify that motexafin gadolinium fluorescence originated from the nucleus and not only from the cytoplasm above or below the nucleus.

[4] = test system: T98G, MO59K and TB10 cells; assay: STXM spectromicroscopy of intranuclear Gd, all cells analyzed; type: cell-based, human; details: overall, n=200
Description: as §1, with “exposure. […]” for “exposure.”
(§3) STXM Spectromicroscopy Analysis: The STXM instrument on beamline 11.0.2 at the Advanced Light Source in Berkeley uses an undulator source and is optimized for the Gd3d absorption energy. […] Three cell cultures were analyzed, containing 34 T98G cells, 27 MO59K cells, and 139 TB10 cells, respectively. […]

[5] = ICP-MS of Gd in tissue and plasma of glioblastoma multiforme patients; type: in vivo, human
Description: Tissue samples from three glioblastoma multiforme patients were also analyzed with ICP-MS (Table 1). These were collected from glioblastoma multiforme tissue and plasma for patients 1 and 2, and from tumor necrotic and uninvolved brain areas for the postmortem patient 3. All gadolinium concentrations were normalized to the measured tissue weight and volume. […]

MO59K cells = assay: STXM spectromicroscopy of intranuclear Gd; type: cell-based, human; details: 27 MO59K cells, 100 μmol/L, 72 hours
Description: as §1
as §2, with “(27). Parallel cultures were run and treated identically for ICP-MS measurements of the bulk Gd concentration. Cell cultures for STXM analysis on Si3N4 windows, after motexafin gadolinium exposure, were washed, fixed, washed, and air-dried.” for “(27).”
as §3

T98G cells = assay: STXM spectromicroscopy of intranuclear Gd; type: cell-based, human; details: 34 T98G cells, 100 μmol/L, 72 hours
Description: as §1
as §2, with “(27). Parallel cultures were run and treated identically for ICP-MS measurements of the bulk Gd concentration. Cell cultures for STXM analysis on Si3N4 windows, after motexafin gadolinium exposure, were washed, fixed, washed, and air-dried.” for “(27).”
as §3

TB10 cells [6] = assay: STXM spectromicroscopy of intranuclear Gd; type: cell-based, human; details: 139 TB10 cells, 100 μmol/L, 72 hours
Description: as §1
as §2, with “(27). Parallel cultures were run and treated identically for ICP-MS measurements of the bulk Gd concentration. Cell cultures for STXM analysis on Si3N4 windows, after motexafin gadolinium exposure, were washed, fixed, washed, and air-dried.” for “(27).”
as §3

[7] = test system: glioblastoma multiforme cell nuclei; assay: In vivo biodistribution of Gd-DTPA in glioblastoma multiforme patients (ICP-MS, spectromicroscopy); parameters: species or system human; details: six glioblastoma multiforme patients injected with Gd-DTPA before tumor excision
Description: The present inventors also tested the in vivo biodistribution of Gd-DTPA in six glioblastoma multiforme patients injected with Gd-DTPA before tumor excision. The tumors were frozen and sectioned for ICP-MS and Microscope à Emission de Photoélectrons par Illumination Synchrotronique de Type Onduleur analysis. Evidence for Gd intracellular localization was found within the tumors in all six cases. However, the gadolinium localized in only 6.1% of the cell nuclei analyzed.

F98 brain glioma = details: intracranial infusion one day before 78.8 keV photons, 15 Gy single dose; cited from earlier work

motexafin gadolinium
cell appearance [1]: not altered
percentage of Gd-containing nuclei (TB10 cells [2]; TB10, after sputtering (72 cells)): 88%
percentage of Gd-containing nuclei (TB10 cells [2]; TB10, before sputtering (unsputtered, 108 cells)): 92%
percentage of cells with at least one gadolinium pixel in the nucleus (TB10 cells [2]; TB10, n=180, 100 μmol/L, 72 hours): 90%
percentage of cells exhibiting motexafin gadolinium-related fluorescence in cytoplasm and nuclei [3]: 100%
percentage of cells with at least one gadolinium pixel in their nuclei [4]: 90%
[Gd] ([5]; Patient 1, Plasma, 2:30 hrs, single dose 10 mg/kg): 3.415 ppm
[Gd] ([5]; Patient 1, Plasma, 5 min, single dose 10 mg/kg): 12.973 ppm
[Gd] ([5]; Patient 1, Plasma, 45 min, single dose 10 mg/kg): 7.349 ppm
[Gd] ([5]; Patient 1, Plasma, 3 hrs, single dose 10 mg/kg): 4.079 ppm
[Gd] ([5]; Patient 1, Plasma, 24 hrs, single dose 10 mg/kg): 1.700 ppm
[Gd] ([5]; Patient 1, Tumor, 2:30 hrs, single dose 10 mg/kg): 7.266 ppm
[Gd] ([5]; Patient 1, Tumor, 3 hrs, single dose 10 mg/kg): 2.475 ppm
[Gd] ([5]; Patient 2, Plasma, 1:14 hrs, single dose 10 mg/kg): 6.536 ppm
[Gd] ([5]; Patient 2, Plasma, 1:30 hrs, single dose 10 mg/kg): 6.309 ppm
[Gd] ([5]; Patient 2, Plasma, 5 min, single dose 10 mg/kg): 14.043 ppm
[Gd] ([5]; Patient 2, Plasma, 45 min, single dose 10 mg/kg): 8.143 ppm
[Gd] ([5]; Patient 2, Plasma, 3 hrs, single dose 10 mg/kg): 5.109 ppm
[Gd] ([5]; Patient 2, Plasma, 24 hrs, single dose 10 mg/kg): 1.770 ppm
[Gd] ([5]; Patient 2, Tumor, 1:11 hrs, single dose 10 mg/kg): 29.728 ppm
[Gd] ([5]; Patient 2, Tumor, 1:18 hrs, single dose 10 mg/kg): 19.580 ppm
[Gd] ([5]; Patient 2, Tumor, 45 min, single dose 10 mg/kg): 22.589 ppm
[Gd] ([5]; Patient 3 (autopsy), Necrosis within tumor, 57 days after the last of multiple doses): 2.144 ppm
[Gd] ([5]; Patient 3 (autopsy), Tumor, 57 days after the last of multiple doses, listed as Motexafin-Gd): 8.542 ppm and 8.022 ppm
percentage of cells containing gadolinium in their nuclei (MO59K cells): 96%
percentage of cells containing gadolinium in their nuclei (T98G cells): 90%
percentage of cells containing gadolinium in their nuclei (TB10 cells [6]): 88%

O=C([O-])CN(CCN(CC(=O)[O-])CC(=O)O)CCN(CC(=O)[O-])CC(=O)O.[Gd+3] [Gd-DTPA, gadolinium diethylenetriaminepentaacetic acid]
percentage of cell nuclei analyzed in which gadolinium localized [7]: 6.1%

N.N.[Cl][Pt][Cl] [cis-platinum]
survival rate at one year (F98 brain glioma): 34%

Source: patent US20070225268A1, “METHOD TO TREAT NEOPLASMS VIA GADOLINIUM STEREOTACTIC SYNCHROTRON RADIATION” (priority 2005, published 2007)
